The values below are quoted from earlier work in US20200000750A1, “Composition for Treating Acute and Chronic Pain” (priority 2018, published 2020).

The subject of one series is acute attacks of gout. The conditions noted are these: literature; colchiceine at 5 to 8 mg orally.
Series [1] relates to mitosis, spindle formation. The conditions noted are these: for antagonism of colchicine: literature (Benitez et al. 1954); for antimitotic effect (mitotic or spindle poison): literature.
The conditions of series [2]: literature.
Another series concerns granulocytopoiesis. Conditions: animals and humans; compared with colchicine.
The test system of the next series is spermatogenesis. Conditions: in vivo.
The test system of another series is humans. Conditions: with the doses mentioned.

Structures are written as SMILES.

`COc1c(O[C@@H]2O[C@H](CO)[C@@H](O)[C@H](O)[C@H]2O)cc2c(c1OC)-c1ccc(OC)c(=O)cc1[C@@H](NC(C)=O)CC2` [colchicoside]: in the series with acute attacks of gout, the “anti-gout effect in acute attacks of gout” value (shortened to “anti-gout effect”) is “equivocal results”.

As for `O[C@H]1[C@H](O)[C@@H](O)[C@H](O)[C@@H](O)[C@H]1O` [mesoinosital], the antagonism of colchicine result in series [1] was “potent antagonist of colchicine”.

On to `COc1cc2c(c(OC)c1OC)-c1ccc(=O)c(OC)cc1[C@@H](NC(C)=O)CC2` [Iso-colchicine], for which the “anti-gout effect” value with acute attacks of gout is on record as “little or no anti-gout effects”. Also, the toxicity result in series [2] was “relatively nontoxic”. The “antimitotic effect (mitotic or spindle poison)” value in series [1] is recorded as “relatively ineffective as mitotic poisons”.

On to `COc1cc2c(c(OC)c1OC)-c1ccc(OC)c(=O)cc1[C@@H](NC(C)=O)CC2` [Colchicine, colchicine], for which, in the series with acute attacks of gout, the “anti-gout effect” value is on record as “dramatic relief of acute attacks of gout”.

`COc1cc2c(c(OC)c1OC)-c1ccc(=O)c(O)cc1[C@@H](NC(C)=O)CC2` [colchiceine]: in the series on acute attacks of gout, the “anti-gout effect” value is “no anti-gout effects”. The diarrheal effect result in series [2] is “very weak”. For the same molecule, the “antimitotic effect (mitotic or spindle poison)” value in series [1] is on record as “very weak antimitotic”.

`CN[C@H]1CCc2cc(OC)c(OC)c(OC)c2-c2ccc(OC)c(=O)cc21` [Desacetylmethylcolchicine]: the effect on granulocytopoiesis result in the series with granulocytopoiesis was “very depressing effect on granulocytopoiesis, much greater than colchicine”. Also, the effect on spermatogenesis entry with spermatogenesis was “Impairment of spermatogenesis”. Further, in the series on birds, the loss of feathers result is reported as “loss of feathers”. Moreover, the alopecia result in the series with humans is “temporary total alopecia”.

In the case of `O=C(CCc1ccc(O)cc1)c1c(O)cc(O)cc1O[C@@H]1O[C@H](CO)[C@@H](O)[C@H](O)[C@H]1O` [Phlorizine], the “increase of the antimitotic effect of colchicine (synergist)” value in series [1] (literature (H. R. Littre, et al. 1951)) is on record as “eight times”.

Consider `O=c1cccccc1O` [tropolone], for which, in series [1], the “antimitotic effect (mitotic or spindle poison)” value is “not a spindle poison but rather favors the formation of the spindle” and the antagonism of colchicine result is on record as “potent antagonist of colchicine”.
